{"source": "patent US20240293364A1", "about": "“BIOMARKERS FOR CANCER THERAPY USING MDM2 ANTAGONISTS” (OTSUKA PHARMACEUTICAL CO., LTD., priority 2021, published 2024)", "key": {"[1]": {"tested_on": "xenograft model of MSI-H colorectal cancer (HCT-116)", "experiment": "In vivo efficacy, HCT116 xenograft", "parameters": "species or system BALB/c nude mice", "conditions": "HCT-116 xenograft, 50 mg/kg daily (FIG. 4D)", "experimental": "5×10^6 HCT116 cells (in 100 μl of PBS) were injected subcutaneously into the right hind flank of groups of BALB/c nude mice. Tumours were measured externally by using a pair of digital callipers and volumes calculated as length×width^2×0.523. Before starting the study, the mice were arranged into groups of 8 according to tumour volume; mean volume should be circa 100 mm^3 with a normal range of 50 to 150 mm^3. […] Tumour volumes were measured every 2 to 3 days; animals were sacrificed when tumour volume was >1000 mm^3 or if the tumours started to show any abnormalities, such as ulceration."}, "[2]": {"tested_on": "panel of 237 cancer cell lines", "experiment": "Cell panel screen of 237 cancer cell lines", "format": "cell-based", "conditions": "MSI-H colorectal cell lines", "excerpt": "Genomic features for these cell lines such as somatic mutations, copy number alterations and hypermethylation were obtained from the list of Cancer Functional Events as mentioned in Garnett et al (2016) ANOVA method was used to identify significant associations of genomics features to drug response."}, "DDR signalling pathway": {"tested_on": "DDR signalling pathway", "experiment": "Western blotting of DDR signalling in ATM mutant cell lines", "format": "cell-based", "conditions": "ATM mutant cell lines (FIG. 2E)", "experimental": "The cell lysates were then analysed by Western blotting. […] After washing, blots were incubated for 1 hour with infrared dye labelled anti-rabbit IR800 or anti-goat IR800 secondary antibodies at a dilution of 1: 10,000 in Odyssey blocking buffer (LiCor Biosciences, Lincoln, USA)."}, "[3]": {"tested_on": "ATM mutant cell lines (HCC1500, LNCap, HT-144, HepG2)", "experiment": "Proliferation assays on cancer cell lines (CellTiter-Glo), ATM mutant cell lines", "format": "cell-based", "conditions": "four ATMmut cell lines: HCC1500 breast, LNCap prostate, HT-144 melanoma, HepG2 liver (FIG. 2C)", "experimental": "(§1) Cancer cells were cultured in appropriate medium. […] Each cell line was tested in triplicates."}, "MSI-H cell lines": {"tested_on": "MSI-H cell lines", "experiment": "Proliferation assays on cancer cell lines (CellTiter-Glo), MSI-H cell lines", "format": "cell-based", "conditions": "eight MSI-H cell lines from different indications (FIG. 4B)", "experimental": "as §1"}, "A2780": {"tested_on": "A2780", "experiment": "CellTiter-Glo cell viability, combination matrix with PARP inhibitors (HSA synergy), A2780", "format": "cell-based", "conditions": "A2780, TP53 WT, DDR defective, 72 h", "experimental": "The cell line will be treated with test articles alone, matrix combinations with test articles and culture medium as vehicle control.\n• 1. Harvest cells during the logarithmic growth period and count cell number. • 2. Adjust cell concentrations to 4.0×10^4cells/mL with respective culture medium. • 3. Add 100 μL cell suspensions to three 96-well plates (plates A, B and C) with the final cell density of 4×10^3 cells/well. 4a. Next Day: For the Plates of TO Reading: • 1) Equilibrate the plate A and its content at RT for approximately 30 min. • 2) Add 50 μL CellTiter-Glo reagent to each well. • 3) Mix content for 5 min on an orbital shaker to induce cell lysis. • 4) Allow the plate to incubate at RT for 20 min to stabilize luminescent signal. • 5) Record luminescence (TO) using EnVision Multi Label Reader. 4b. For the Plates of Test Reading: • 1) Prepare 500× solution of test articles (Top working concentration: 10 μM/100 μM of test articles in media with 3-fold serial dilutions to achieve 9 dose levels. • 2) Prepare 10× reference control solutions (Top working concentration: 100 μM in media with 3.16-fold serial dilutions. • 3) Dispense 500× drug solutions in each well (triplicate for each drug concentration) of the plate B using digital dispenser. […] Record luminescence (T3) using EnVision Multi Label Reader. […]"}}, "data": [{"molecule": "CC[C@@](O)(c1cc(F)c2c(c1)C(=O)N([C@H](c1ccc(Cl)cc1)[C@H](C)C(=O)O)[C@@]2(OC)c1ccc(Cl)cc1)C1CCOCC1", "note": "[Example 124, (2S,3S)-3-(4-chlorophenyl)-3-[(1R)-1-(4-chlorophenyl)-7-fluoro-5-[(1S)-1-hydroxy-1-(oxan-4-yl)propyl]-1-methoxy-3-oxo-2,3-dihydro-1H-isoindol-2-yl]-2-methylpropanoic acid]", "values": [{"measurement": "tumour growth inhibition", "setting": "[1]", "value": "significantly inhibits tumour growth"}, {"measurement": "sensitivity in the cell panel data", "setting": "[2]", "value": "sensitive"}, {"measurement": "modulation of the DDR signalling pathway (western blot)", "setting": "DDR signalling pathway", "value": "clear modulation of the DDR signalling pathway"}, {"measurement": "sensitivity as measured by reduction in cell proliferation", "setting": "[3]", "value": "showed sensitivity"}, {"measurement": "sensitivity as measured by reduction in cell proliferation", "setting": "MSI-H cell lines", "value": "showed sensitivity"}, {"measurement": "HSA_Average <−5 Antagonism >+5 Synergy", "setting": "A2780; Compound 1 in combination with Olaparib", "value": 6.2}, {"measurement": "HSA_Average <−5 Antagonism >+5 Synergy", "setting": "A2780; Compound 1 in combination with Talazoparib", "value": 12.3}]}]}
